According to patent US20080090900A1, “ANTIBIOTIC BUSHRIN” (University of Karachi, priority 2006, published 2008):
Values after ≈ are worked out from the molar mass of the structure shown. “Also recorded” adds a separate entry of the source. Where two headings read alike, the source gives them in different places.

Experiments:
Enterobacter faecalis = format: cell-based
Proteus mirabilis = format: cell-based
Proteus morgani = format: cell-based
[1] = tested on: Staphylococcus epidermidis; assay: disc diffusion technique; format: cell-based
[2] = tested on: MSSA methicillin sensitive staphylococcus aureus; assay: disc diffusion technique; format: cell-based
Clostridium sporogenes [3] = assay: microbe, parasite or virus in culture; format: cell-based
Bacillus subtilis [4] = format: cell-based
Salmonella typhi [5] = assay: disc diffusion technique; format: cell-based
Staphylococcus aureus [6] = assay: Spheroplasting activities; format: cell-based
Protocol: Aliquots (100 μl) of an exponential phase culture(A600,0.05) grown in Luria broth supplemented with 0.3M concentration of sucrose were dispensed into test tubes containing different concentration of Compound 1 and 1 μl/ml ampicillin as positive control. The tubes were then incubated at 30° C. with shaking at 140 rpm. After 90 minutes, the cells were examined by phase contrast microscope for any morphological changes or for the presence of spheroplast. To confirm the osmotic fragility of the spheroplast the lytic effect of 2-3 μl of water added under the cover slip was tested.

Candida albicans = assay: disc diffusion technique; format: cell-based
[7] = tested on: Staphylococcus aureus (ATCC33591); assay: Time kill experiment
Vibrio harveyi [8] = format: cell-based
Hafnia alvei [9] = assay: disc diffusion technique; format: cell-based
Clostridium perfringens = assay: microbe, parasite or virus in culture; format: cell-based
Serratia marcescens = assay: disc diffusion technique; format: cell-based
Escherichia coli = assay: disc diffusion technique; format: cell-based; conditions: 150 μg disc, read-out: Sensitivity (width of inhibition zone)
Streptococcus group G = assay: disc diffusion technique; format: cell-based; conditions: 150 μg disc
Staphylococcus aureus [10] = format: cell-based
[11] = tested on: Bacillus steriothermophilus; format: cell-based
[12] = tested on: Bacillus steriothermophilus; assay: disc diffusion technique; format: cell-based; conditions: 150 μg disc, read-out: Sensitivity (width of inhibition zone)
Streptococcus sp = format: cell-based
Staphylococcus aureus [13] = assay: Bacteriolytic assay; format: cell-based; conditions: 600 nm, 30° C., 0-360 min, various concentrations
Protocol: The seed culture of Staphylococcus aureus in Luria broth (LB) were washed twice with sterile distilled water containing 0.9% sodium chloride and the absorbance was adjusted to 0.05 at 600 nm. The bacterial cell suspension was divided into aliquots of 5 ml each placed in sterile test tube and exposed to Compound 1 at various concentration, untreated bacterial suspension were used as the negative control.

Salmonella typhi [14] = format: cell-based; conditions: Salmonella enterica
Hafnia alvei [15] = format: cell-based
Vibrio harveyi [16] = assay: disc diffusion technique; format: cell-based; conditions: 150 μg disc, read-out: Sensitivity (width of inhibition zone)
Enterococcus faecalis = format: cell-based
Bacillus cereus = format: cell-based
Clostridium sporogenes [17] = assay: microbe, parasite or virus in culture; format: cell-based; conditions: Clostridium sporogenes, read-out: Sensitivity (width of inhibition zone)
Staphylococcus aureus [18] = assay: Phase contrast microscopy; format: cell-based; conditions: 60 μl/ml, immediately after treatment
Protocol: (§1) An exponential phase culture (A600, 0.05) of Bacillus subtilis and Staphylococcus aureus grown in Luria broth was treated with 50 μl/ml of Compound 1 for Bacillus subtilis and 60 μl/ml for Staphylococcus aureus and slides were immediately made in 1% agarose using 4 μl of Compound 1 treated cultures, time lapse images were obtained under phase contrast microscope, particular care was taken to minimize the sample exposure to UV light, image grabbing were performed essentially as described by Edwards and Errrington. (Edwards, D. H., and Errington, J.(1997). The Bacillus subtilis […] protein targets to the division septum and control the site specificity of cell division. Mol Microbiol 24:905-915).

Bacillus subtilis [19] = assay: Phase contrast microscopy; format: cell-based; conditions: 50 μl/ml, immediately after treatment
Protocol: as §1

[20] = Heat stability test (antibacterial activity by disk diffusion after heating); format: physicochemical
Protocol: […] After the treatment, the liquid in each tube was evaporated completely and Compound 1 was re-dissolved in methanol to give an appropriate concentration. Then antibacterial activity was evaluated in triplicate by the disk diffusion method.

Compound: Cc1cc(O)c2c(c1)C=CC(C)(c1ccoc1)C2 (stereo not drawn) [Compound 1, 7-(3-furyl)-3,7-dimethyl-7,8-dihydro-1-naphthalenol]
- MIC (Enterobacter faecalis): 100 µg/mL (≈ 416 µM)
- MIC (Proteus mirabilis): 75 µg/mL (≈ 312 µM)
- MIC (Proteus mirabilis; Proteus mirabilis, read-out: MIC): 75 µg/mL (≈ 312 µM)
- MIC (Proteus morgani): 75 µg/mL (≈ 312 µM)
- zone of inhibition at 150 µg/disc ([1]; 150 μg disc, Staphylococcus epidermidis, read-out: Sensitivity (width of inhibition zone)): 18 to 30 mm
- antibacterial activity ([1]; Staphylococcus epidermids): active; also recorded: activity
- antibacterial activity ([2]; Staphylococcus aureus MSSA): active; also recorded: activity
- zone of inhibition at 150 µg/disc ([2]; Staphylococcus aureus, 150 μg disc, MSSA, read-out: Sensitivity (width of inhibition zone)): 18 to 30 mm
- MIC (Clostridium sporogenes [3]): 125 µg/mL (≈ 520 µM)
- MIC (Bacillus subtilis [4]): 50 to 60 µg/mL
- MIC (Bacillus subtilis [4]; Bacillus subtilis, read-out: MIC): 50 µg/mL (≈ 208 µM)
- zone of inhibition at 150 µg/disc (Salmonella typhi [5]; Salmonella enterica, TYPHI, read-out: Sensitivity (width of inhibition zone)): 15 to 20 mm
- antibacterial activity (Salmonella typhi [5]; disc diffusion, Salmonella typhi): active; also recorded: activity
- formation of osmotically fragile spheroplasts (Staphylococcus aureus [6]; Luria broth with 0.3M sucrose, 90 minutes, phase contrast microscope): did not induce
- killing of cells in osmotically protected medium (Staphylococcus aureus [6]; Staphylococcus aureus): killed
- activity (Candida albicans): not active
- Sensitivity (width of inhibition zone) (Candida albicans; 150 μg disc): −
- concentration able to kill completely ([7]; Staphylococcus aureus): 125 µg/mL
- exposure time after which number of viable bacterial cells decreased ([7]; at MIC 50 μg/ml): 8 h
- course of viable bacterial cell count ([7]; at two and four times the MIC): decreased drastically
- time after which viable count decreased drastically ([7]; four times the MIC): 1 h
- killing rate compared with test antibiotics ([7]; same concentration and length of exposure, vs vancomycin, nisin, tetracycline, ampicillin): much higher
- bactericidal activity ([7]; time kill, Staphylococcus aureus): rapidly bactericidal
- time after which viable count decreased drastically ([7]; two times the MIC): 2 h
- MIC (Vibrio harveyi [8]): 75 µg/mL (≈ 312 µM)
- antibacterial activity (Hafnia alvei [9]): active; also recorded: activity
- zone of inhibition at 150 µg/disc (Hafnia alvei [9]; 150 μg disc, read-out: Sensitivity (width of inhibition zone)): 15 to 20 mm
- zone of inhibition at 150 µg/disc (Clostridium perfringens; Clostridium perfringens, read-out: Sensitivity (width of inhibition zone)): 10 to 15 mm
- antibacterial activity (Clostridium perfringens; disc diffusion, anaerobic Clostridium perfringens): less active
- zone of inhibition at 150 µg/disc (Serratia marcescens; 150 μg disc, Serratia marcescens, read-out: Sensitivity (width of inhibition zone)): 15 to 20 mm
- antibacterial activity (Serratia marcescens; Serratia marcesens): active; also recorded: activity
- zone of inhibition at 150 µg/disc (Escherichia coli): 10 to 15 mm
- Sensitivity (width of inhibition zone) (Streptococcus group G): −
- MIC (Staphylococcus aureus [10]; Staphylococcus aureus): 50 to 100 µg/mL (≈ 208 to 416 µM)
- MIC (Staphylococcus aureus [10]; Staphylococcus aureus (ATCC33591), stated in time kill experiment, read-out: MIC): 50 µg/mL (≈ 208 µM)
- MIC [11]: 50 to 60 µg/mL
- MIC ([11]; Bacillus steriothermophilus, read-out: MIC): 50 µg/mL (≈ 208 µM)
- zone of inhibition at 150 µg/disc [12]: 18 to 30 mm
- MIC (Streptococcus sp): 200 µg/mL (≈ 832 µM)
- absorbance of Staphylococcus aureus cell suspension (lysis) (Staphylococcus aureus [13]): Reduction of the absorbance
- MIC (Salmonella typhi [14]): 75 µg/mL (≈ 312 µM)
- MIC (Hafnia alvei [15]): 100 µg/mL (≈ 416 µM)
- MIC (Hafnia alvei [15]; Hafnia alvei, read-out: MIC): 100 µg/mL (≈ 416 µM)
- zone of inhibition at 150 µg/disc (Vibrio harveyi [16]): 18 to 30 mm
- MIC (Enterococcus faecalis): 50 µg/mL (≈ 208 µM)
- MIC (Bacillus cereus): 60 µg/mL (≈ 250 µM)
- zone of inhibition at 150 µg/disc (Clostridium sporogenes [17]): 10 to 15 mm
- morphological change of treated cells (time lapse images) (Staphylococcus aureus [18]): complete lyses
- morphological change of treated cells (time lapse images) (Bacillus subtilis [19]): uniform and consistent decrease in size of cells
- antibacterial activity after heat treatment ([20]; at 200° C.): completely lost
- antibacterial activity after heat treatment ([20]; treatment at 120° C.): significantly reduced
